Source: patent US10259776B2, “Branched 3-phenylpropionic acid derivatives and their use” (BAYER INTELLECTUAL PROPERTY GMBH, priority 2011, dated 2019)

Key:
[1] = target: sGC in the CHO reporter cell (Rattus norvegicus (Rat), UniProt P20595); test: Action at a recombinant guanylate cyclase reporter cell line; format: cell-based; conditions: CHO reporter cell in vitro
Procedure: The cellular action of the compounds according to the invention is determined at a recombinant guanylate cyclase reporter cell line, as described in F. Wunder et al., Anal. Biochem. 339, 104-112 (2005).

[2] = target: soluble guanylate cyclase (sGC) (Rattus norvegicus (Rat), UniProt P20595); test: Stimulation of sGC enzyme activity (PPi detection, luciferase); format: biochemical; conditions: sGC enzyme in vitro
soluble guanylate cyclase (sGC), sequence (P20595 whole entry): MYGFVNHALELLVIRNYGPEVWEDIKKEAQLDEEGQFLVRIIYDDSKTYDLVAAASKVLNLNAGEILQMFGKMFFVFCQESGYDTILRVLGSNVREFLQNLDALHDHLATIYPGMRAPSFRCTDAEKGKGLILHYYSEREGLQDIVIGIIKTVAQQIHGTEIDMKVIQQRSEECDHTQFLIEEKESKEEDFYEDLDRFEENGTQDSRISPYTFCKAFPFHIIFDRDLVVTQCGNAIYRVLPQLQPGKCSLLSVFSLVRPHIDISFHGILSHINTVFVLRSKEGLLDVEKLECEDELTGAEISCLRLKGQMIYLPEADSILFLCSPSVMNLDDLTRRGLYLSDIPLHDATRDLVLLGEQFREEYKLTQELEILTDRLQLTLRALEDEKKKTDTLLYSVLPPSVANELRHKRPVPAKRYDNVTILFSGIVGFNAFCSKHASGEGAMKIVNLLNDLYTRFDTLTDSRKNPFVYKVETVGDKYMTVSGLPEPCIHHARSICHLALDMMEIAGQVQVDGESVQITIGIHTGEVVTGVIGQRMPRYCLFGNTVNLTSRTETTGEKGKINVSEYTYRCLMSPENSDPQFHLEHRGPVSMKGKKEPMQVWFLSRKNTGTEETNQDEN
soluble guanylate cyclase (sGC), sequence (P19686 whole entry partner): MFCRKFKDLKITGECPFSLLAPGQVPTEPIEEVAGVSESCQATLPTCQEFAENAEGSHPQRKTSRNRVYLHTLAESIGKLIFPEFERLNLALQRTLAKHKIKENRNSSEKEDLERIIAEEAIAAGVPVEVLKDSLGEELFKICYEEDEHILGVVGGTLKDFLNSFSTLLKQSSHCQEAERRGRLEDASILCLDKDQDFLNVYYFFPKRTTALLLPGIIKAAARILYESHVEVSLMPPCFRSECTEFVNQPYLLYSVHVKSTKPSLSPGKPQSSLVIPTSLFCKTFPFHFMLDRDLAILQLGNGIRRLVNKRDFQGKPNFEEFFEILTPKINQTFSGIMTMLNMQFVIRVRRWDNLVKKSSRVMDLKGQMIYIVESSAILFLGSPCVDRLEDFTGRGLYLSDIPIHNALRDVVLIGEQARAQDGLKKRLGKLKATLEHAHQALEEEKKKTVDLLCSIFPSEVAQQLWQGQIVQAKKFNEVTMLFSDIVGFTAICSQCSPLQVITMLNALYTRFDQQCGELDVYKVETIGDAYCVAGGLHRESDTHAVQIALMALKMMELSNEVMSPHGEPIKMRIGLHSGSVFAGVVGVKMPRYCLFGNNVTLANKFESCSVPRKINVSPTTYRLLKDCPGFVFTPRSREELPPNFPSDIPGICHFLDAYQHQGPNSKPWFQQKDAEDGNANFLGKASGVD
Procedure: Soluble guanylate cyclase (sGC) converts on stimulation GTP into cGMP and pyrophosphate (PPi). PPi is detected with the aid of the assay described below. The signal produced in the assay increases as the reaction progresses and serves as a measure of the sGC enzyme activity under the given stimulation.
To carry out the assay, 29 μl of enzyme solution [0-10 nM soluble guanylate cyclase (prepared according to Honicka et al., J. Mol. Med. 77, 14-23 (1999)) in 50 mM TEA, 2 mM MgCl2, 0.1% BSA (fraction V), 0.005% Brij®, pH 7.5] are initially introduced into a microplate, and 1 μl of the substance to be tested (as a serially diluted solution in DMSO) is added. The mixture is incubated at room temperature for 10 min. […] The enzyme reaction is started by adding 20 μl of substrate solution [1.25 mM guanosine 5′-triphosphate (Sigma) in 50 mM TEA, 2 mM MgCl2, 0.1% BSA (fraction V), 0.005% Brij®, pH 7.5] and measured continuously in a luminometer. The extent of the stimulation by the substance to be tested can be determined relative to the signal of the unstimulated reaction. […]

sGC in the CHO reporter cell, sequence (P20595 whole entry): as the sequence (P20595 whole entry) above
sGC in the CHO reporter cell, sequence (P19686 whole entry partner): as the sequence (P19686 whole entry partner) above

In the case of `CC(C(=O)O)C(c1ccc(Cl)c(NC(=O)C(c2ccc(Cl)cc2)[C@@H](C)C(F)(F)F)c1)C1CC1` (stereo partly drawn) [Example 30, 3-(4-Chloro-3-{[(3R)-2-(4-chlorophenyl)-4,4,4-trifluoro-3-methylbutanoyl]amino}phenyl)-3-cyclopropyl-2-methylpropanoic acid], the “MEC (minimum effective concentration), sGC-activating activity in the CHO reporter cell” value [1] is reported as 10 nM and the “MEC (minimum effective concentration), activating action at the sGC enzyme” value [2] is reported as 17 nM.
